The values below come from patent publication US9688624B2, “DP2 antagonist and uses thereof” (Brickell Biotech, Inc., priority 2010, dated 2017).

Series [1] is described as follows: Metabolites of Compound 1 (active metabolites). On the procedure: Compound 1 metabolites formed during incubation of Compound 1 with rat, dog, and human liver microsomes, rat and human hepatocytes, as well as those generated in vivo and isolated from rat bile and rat and dog plasma have been investigated. Authentic standards of the majority of the metabolites have been chemically synthesized. The identity of the in vitro and in vivo metabolites were confirmed by comparison with the authentic standard and/or by the fragmentation pattern observed following LC-MS/MS analysis.

In series [2] the target is CYP2C19 (Homo sapiens (Human), UniProt P33261). The experiment in a line: Extracellular cytochrome P450 inhibition (microsomes). The note with it: 2C19, mephenytoin 4′-hydroxylation.
Chain of CYP2C19 (P33261 whole entry): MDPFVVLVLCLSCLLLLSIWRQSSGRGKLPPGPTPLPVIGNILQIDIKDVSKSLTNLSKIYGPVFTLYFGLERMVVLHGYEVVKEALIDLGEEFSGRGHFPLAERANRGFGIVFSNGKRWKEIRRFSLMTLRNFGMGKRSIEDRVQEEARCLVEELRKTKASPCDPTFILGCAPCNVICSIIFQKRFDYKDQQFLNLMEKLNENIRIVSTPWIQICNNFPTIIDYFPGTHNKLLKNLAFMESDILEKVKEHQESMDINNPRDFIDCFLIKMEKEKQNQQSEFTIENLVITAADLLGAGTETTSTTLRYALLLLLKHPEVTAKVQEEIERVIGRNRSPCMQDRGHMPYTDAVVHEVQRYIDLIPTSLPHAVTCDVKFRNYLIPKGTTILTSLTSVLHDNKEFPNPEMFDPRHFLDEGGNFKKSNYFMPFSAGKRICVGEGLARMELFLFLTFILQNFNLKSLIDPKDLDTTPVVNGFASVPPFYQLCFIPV

For the molecule `COc1ccc(CC(=O)O)cc1Oc1ccc(NC(=O)C(C)(C)C)cc1CS(=O)(=O)C(C)(C)C` [Compound M2, 2-(3-(2-(tert-butylsulfonylmethyl)-4-pivalamidophenoxy)-4-methoxyphenyl)acetic acid], in series [1], the activity of metabolite entry is given as “active”.

Take `CC(C)(C)SCc1cc(NC(=O)C(C)(C)C)ccc1Oc1cc(CC(=O)O)ccc1O` [Compound M3, 2-(3-(2-(tert-butylthiomethyl)-4-pivalamidophenoxy)-4-hydroxyphenyl)acetic acid]: in series [1], the activity of metabolite result is listed as “active”. For the molecule `CC(C)(C)C(=O)Nc1ccc(Oc2cc(CC(=O)O)ccc2O)c(C[S+]([O-])C(C)(C)C)c1` (centres unmarked) [Compound M5, 2-(3-(2-(tert-butylsulfinylmethyl)-4-pivalamidophenoxy)-4-hydroxyphenyl)acetic acid], in series [1], the activity of metabolite entry is recorded as “active”. The same measure, in the same setting: the entry for `COc1ccc(CC(=O)O)cc1Oc1ccc(NC(=O)C(C)(C)C)cc1C[S+]([O-])C(C)(C)C` (centres unmarked) [Compound M1, 2-(3-(2-(tert-butylsulfinylmethyl)-4-pivalamidophenoxy)-4-methoxyphenyl)acetic acid] is “active”. `CCC1(c2ccccc2)C(=O)NC(=O)N(Cc2ccccc2)C1=O` (single isomer, unassigned; (-)) [(-)-N-3-benzyl-phenobarbital, reference compound] returned an IC50 in series [2] of 8.7 µM.

One may read the IC50 as the concentration that inhibits the measured activity by half. A high value points to weaker potency.
